The text below walks through data of US20050209278A1, “Piperidinyl- and piperazinyl-sulfonylmethyl hydroxamic acids and their use as protease inhibitors” (priority 2002, published 2005).

Where “and” joins values, the source holds several entries; their conditions need not be identical. Equal values may be shown once.

This assay deals with T1, MMP-2 (Homo sapiens, UniProt P08253).
T1 construct: made in house; host or cells: MMP-2-transfected p2AHT2 cells
T1 sequence (P08253 110-660): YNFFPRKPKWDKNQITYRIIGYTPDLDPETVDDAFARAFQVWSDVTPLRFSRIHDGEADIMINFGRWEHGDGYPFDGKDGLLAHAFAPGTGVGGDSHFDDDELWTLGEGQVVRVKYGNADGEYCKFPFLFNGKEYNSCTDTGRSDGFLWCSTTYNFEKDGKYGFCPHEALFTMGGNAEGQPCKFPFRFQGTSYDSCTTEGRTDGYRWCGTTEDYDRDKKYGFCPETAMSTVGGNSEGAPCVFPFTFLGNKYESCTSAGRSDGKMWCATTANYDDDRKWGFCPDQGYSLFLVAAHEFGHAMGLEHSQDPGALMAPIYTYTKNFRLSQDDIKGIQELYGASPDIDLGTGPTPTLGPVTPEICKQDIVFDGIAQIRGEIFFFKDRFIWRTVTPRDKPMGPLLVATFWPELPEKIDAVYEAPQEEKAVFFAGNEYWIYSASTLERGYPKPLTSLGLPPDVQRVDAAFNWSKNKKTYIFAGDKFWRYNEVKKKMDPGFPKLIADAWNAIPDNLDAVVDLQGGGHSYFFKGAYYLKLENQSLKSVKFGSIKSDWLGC
In words: In vitro MMP inhibition, Ki determination (fluorogenic substrate II). The assay is classed as biochemical. The note with it: value outside parentheses; read-out: MMP-2 Ki.

For orientation: Ki means the dissociation constant of the complex between target and ligand, obtained from inhibition or displacement. Regarding `CCc1ccc(C2CCN(S(=O)(=O)C3(C(=O)NO)CCN(CCOC)CC3)CC2)s1` [Example 314], the Ki amounted to 9.1 nM.

`O=C(NO)C1(S(=O)(=O)N2CCC(N3CCN(c4ccc(Cl)cc4)CC3)CC2)CCOCC1` [Example 315]: the Ki is 1820 nM.

Take `O=C(NO)C1(S(=O)(=O)N2CCN(c3ccc(-c4ccc(F)cc4F)cn3)CC2)CCOCC1` [Example 316]: the Ki is 0.73 nM.

Take `O=C(NO)C1(S(=O)(=O)N2CCN(c3ccc(-c4ccccc4F)cn3)CC2)CCOCC1` [Example 317]: the Ki was 0.55 nM.

Regarding `COc1ccccc1-c1ccc(N2CCN(S(=O)(=O)C3(C(=O)NO)CCOCC3)CC2)nc1` [Example 318], the Ki turned out to be 79 nM.

Turning to `O=C(NO)C1(S(=O)(=O)N2CCN(c3ccc(-c4cccc(OC(F)(F)F)c4)cn3)CC2)CCOCC1` [Example 319], the Ki amounted to 33.1 nM.

Take `O=C(NO)C1(S(=O)(=O)N2CCN(c3ccc(CCCC(F)(F)F)cc3)CC2)CCOCC1` [Example 320]: the Ki is 0.842 nM.

In the case of `O=C(NO)C1(S(=O)(=O)N2CCN(c3cnn(CCCC(F)(F)F)c(=O)c3)CC2)CCOCC1` [Example 321], the Ki is above 10000 nM.

Regarding `O=C(NO)C1(S(=O)(=O)N2CCN(c3cnn(-c4ccccc4)c(=O)c3)CC2)CCOCC1` [Example 322], the Ki came to 7870 nM.

Consider `CCCCc1ccc(C2CCN(S(=O)(=O)C3(C(=O)NO)CCOCC3)CC2)nc1` [Example 323], for which the Ki came out at 0.5 nM.

Take `COC(=O)c1ccc(N2CCN(S(=O)(=O)C3(C(=O)NO)CCOCC3)CC2)cc1` [Example 324]: the Ki was determined as 1.22 nM.

As to `CCCCOc1ccc(N2CCN(S(=O)(=O)C3(C(=O)NO)CCN(CCOC)CC3)CC2)nc1` [Example 325], the Ki came out at 0.18 nM.

With `O=C(NO)C1(S(=O)(=O)N2CCN(c3ccc(OCC(F)(F)C(F)F)cc3)CC2)CCOCC1` [Example 326], the Ki was 0.34 nM.

On to `O=C(NO)C1(S(=O)(=O)N2CCN(c3ccc(-c4ccc(OC(F)(F)F)cc4)cc3)CC2)CCOCC1` [Example 327], for which the Ki amounted to 0.97 nM.

On to `O=C(NO)C1(S(=O)(=O)N2CCN(c3ccc(-c4ccc(Cl)c(Cl)c4)cc3)CC2)CCOCC1` [Example 328], for which the Ki is 3.58 nM.

Consider `O=C(NO)C1(S(=O)(=O)N2CCN(c3cnn(-c4ccccc4)c(=O)c3Cl)CC2)CCOCC1` [Example 329], for which the Ki is above 10000 nM.

As to `O=C(NO)C1(S(=O)(=O)N2CCC(c3ccc(OCC(F)(F)C(F)(F)F)cc3)CC2)CCOCC1` [Example 330], the Ki stood at 1.18 nM.

For `O=C(NO)C1(S(=O)(=O)N2CCN(c3ccc(Br)cn3)CC2)CCOCC1` [Example 331], the Ki was 0.103 nM.

Regarding `COCCN1CCC(C(=O)NO)(S(=O)(=O)N2CCN(c3ncccn3)CC2)CC1` [Example 332], the Ki worked out at 190 nM.

Regarding `O=C(NO)C1(S(=O)(=O)N2CCN(c3ccc(OCC4CC4)c(F)c3)CC2)CCOCC1` [Example 333], the Ki stood at 0.58 nM.

Turning to `CCCCc1cnc(N2CCN(S(=O)(=O)C3(C(=O)NO)CCN(CCOC)CC3)CC2)nc1` [Example 334], the Ki came out at 5.99 nM.

On to `O=C(NO)C1(S(=O)(=O)N2CCN(c3ccc(CCC(F)(F)C(F)(F)F)cc3)CC2)CCN(C2CC2)CC1` [Example 335], for which the Ki stood at 0.618 nM.

Take `O=C(NO)C1(S(=O)(=O)N2CCN(c3ccc(OCC(F)(F)C(F)F)cc3)CC2)CCOCC1` [Example 336]: the Ki is 0.606 nM.

Turning to `O=C(NO)C1(S(=O)(=O)N2CCC(c3ccc(OC(F)(F)C(F)F)cc3)CC2)CCOCC1` [Example 337], the Ki was 0.427 nM.

For the compound `O=C(NO)C1(S(=O)(=O)N2CCC(c3ccc(CCCC(F)(F)F)cn3)CC2)CCOCC1` [Example 338], the inhibition constant Ki amounted to 1.09 nM.

Turning to `O=C(NO)C1(S(=O)(=O)N2CCC(c3ccc(CCC(F)(F)C(F)(F)F)cn3)CC2)CCOCC1` [Example 340], the Ki is 0.26 nM.

Turning to `CCN1CCC(C(=O)NO)(S(=O)(=O)N2CCN(c3ccc(-c4ccccc4)c(F)c3)CC2)CC1` [Example 341], the Ki amounted to 0.829 nM.

For the compound `O=C(NO)C1(S(=O)(=O)N2CCN(c3ccc(OCCCC(F)(F)F)cc3)CC2)CC(O)C1` (stereo not shown) [Example 342], the Ki turned out to be 16.9 nM.

Regarding `O=C(NO)C1(S(=O)(=O)N2CCN(c3ncc(-c4ccc(Cl)cc4)s3)CC2)CCOCC1` [Example 343], the Ki stood at 0.113 nM.

Consider `Cc1ccc(-c2cnc(N3CCN(S(=O)(=O)C4(C(=O)NO)CCOCC4)CC3)s2)cc1` [Example 344], for which the Ki was 0.177 nM.

Take `O=C(NO)C1(S(=O)(=O)N2CCN(c3ncc(-c4ccc(F)cc4)s3)CC2)CCOCC1` [Example 345]: the Ki was 0.169 nM.

For the compound `O=C(NO)C1(S(=O)(=O)N2CCN(c3ncc(-c4ccc(C(F)(F)F)cc4)s3)CC2)CCOCC1` [Example 346], the Ki stood at 0.215 nM.

`CC(C)(C)c1ccc(-c2cnc(N3CCN(S(=O)(=O)C4(C(=O)NO)CCOCC4)CC3)s2)cc1` [Example 347]: the Ki came out at 8.57 nM.

Consider `Cc1ccccc1-c1cnc(N2CCN(S(=O)(=O)C3(C(=O)NO)CCOCC3)CC2)s1` [Example 348], for which the Ki worked out at 4.61 nM.

Turning to `O=C(NO)C1(S(=O)(=O)N2CCC(c3ccc(OC(F)(F)C(F)(F)F)cc3)CC2)CCOCC1` [Example 349], the Ki was found to be 2.12 nM.

For `O=C(NO)C1(S(=O)(=O)N2CCC(c3ccc(OCC(F)(F)C(F)F)cc3)CC2)CCN(C2CC2)CC1` [Example 350], the Ki worked out at 0.891 nM.

Regarding `O=C(NO)C1(S(=O)(=O)N2CCC(c3ccc(CCCC(F)(F)F)cc3)CC2)CCN(C2CC2)CC1` [Example 351], the Ki came out at 1.26 nM.

Take `O=C(O)c1ccc(N2CCN(S(=O)(=O)C3(C(=O)NO)CCOCC3)CC2)cc1` [Example 352]: the Ki was 2130 nM.

Take `O=C(NO)C1(S(=O)(=O)N2CCC(c3ccc(CCCC(F)(F)F)cc3)CC2)CCOCC1` [Example 353]: the Ki was determined as 1.29 nM.

Consider `CCCCOc1cccc(N2CCN(S(=O)(=O)C3(C(=O)NO)CCOCC3)CC2)c1` [Example 354], for which the Ki was 89.4 nM.

For the compound `O=C(NO)C1(S(=O)(=O)N2CCN(c3cccc(OCCCC(F)(F)F)c3)CC2)CCOCC1` [Example 355], the Ki came out at 38.3 nM.

Turning to `CCCCCc1cccc(N2CCN(S(=O)(=O)C3(C(=O)NO)CCOCC3)CC2)c1` [Example 356], the Ki is 65.7 nM.

`O=C(NO)C1(S(=O)(=O)N2CCC(c3ccc(OCC(F)(F)F)cc3)CC2)CCOCC1` [Example 357]: the Ki came to 0.919 nM.

Turning to `O=C(NO)C1(S(=O)(=O)N2CCN(c3ccc(CCCC(F)(F)F)cn3)CC2)CCOCC1` [Example 358], the Ki was found to be 0.281 nM.

As for `O=C(NO)C1(S(=O)(=O)N2CCN(c3ncc(-c4ccc(F)cc4F)s3)CC2)CCOCC1` [Example 359], the Ki was 0.266 nM.

With `O=C(NO)C1(S(=O)(=O)N2CCN(c3ncc(-c4ccc(-c5ccccc5)cc4)s3)CC2)CCOCC1` [Example 360], the Ki was 0.395 nM.

With `O=C(NO)C1(S(=O)(=O)N2CCN(c3ncc(/C=C/c4ccccc4)s3)CC2)CCOCC1` [Example 361], the Ki was 1.37 nM and 1.39 nM.

Turning to `O=C(NO)C1(S(=O)(=O)N2CCN(c3ncc(-c4ccc5c(c4)OCO5)s3)CC2)CCOCC1` [Example 362], the Ki worked out at 0.333 nM.

For `O=C(NO)C1(S(=O)(=O)N2CCN(c3ncc(-c4ccc([N+](=O)[O-])cc4)s3)CC2)CCOCC1` [Example 363], the Ki stood at 0.056 nM.

`O=C(NO)C1(S(=O)(=O)N2CCN(c3ncc(-c4ccc(OC(F)(F)F)cc4)s3)CC2)CCOCC1` [Example 364]: the Ki stood at 0.187 nM.

With `O=C(NO)C1(S(=O)(=O)N2CCN(c3ncc(-c4cccc(-c5ccccc5)c4)s3)CC2)CCOCC1` [Example 365], the Ki was 201 nM.

As to `CC(C)c1ccc(-c2cnc(N3CCN(S(=O)(=O)C4(C(=O)NO)CCOCC4)CC3)s2)cc1` [Example 366], the Ki was found to be 0.264 nM.

As to `O=C(NO)C1(S(=O)(=O)N2CCC(c3ccc(CCC(F)(F)F)cn3)CC2)CCOCC1` [Example 367], the Ki is 0.978 nM.

As to `O=C(NO)C1(S(=O)(=O)N2CCN(c3ncc(-c4ccc(O)cc4)s3)CC2)CCOCC1` [Example 368], the Ki was 0.225 nM.

As for `O=C(NO)C1(S(=O)(=O)N2CCN(c3ncc(-c4ccc(Cl)c(Cl)c4)s3)CC2)CCOCC1` [Example 369], the Ki was determined as 0.879 nM.

In the case of `Cc1cccc(-c2cnc(N3CCN(S(=O)(=O)C4(C(=O)NO)CCOCC4)CC3)s2)c1` [Example 370], the inhibition constant Ki stood at 1.34 nM.

Consider `COc1ccc(-c2cnc(N3CCN(S(=O)(=O)C4(C(=O)NO)CCOCC4)CC3)s2)cc1OC` [Example 371], for which the Ki turned out to be 4.14 nM.

Turning to `O=C(NO)C1(S(=O)(=O)N2CCN(c3ccc(-c4ccccc4)cn3)CC2)CCOCC1` [Example 372], the Ki was 0.451 nM and 0.479 nM.

On to `O=C(NO)C1(S(=O)(=O)N2CCC(COCc3ccccc3)CC2)CCOCC1` [Example 373], for which the Ki came out at 6.12 nM.

On to `CCC=C1CCN(S(=O)(=O)C2(C(=O)NO)CCOCC2)CC1` [Example 374], for which the Ki worked out at 18.6 nM.

Consider `O=C(NO)C1(S(=O)(=O)N2CCC(COCC(F)(F)C(F)F)CC2)CCOCC1` [Example 375], for which the Ki came to 44.1 nM.

Turning to `O=C(NO)C1(S(=O)(=O)N2CCC(COCC(F)(F)C(F)(F)F)CC2)CCOCC1` [Example 376], the Ki amounted to 27.1 nM.

With `O=C(NO)C1(S(=O)(=O)N2CCC(COCC(F)(F)C(F)(F)C(F)(F)F)CC2)CCOCC1` [Example 377], the Ki turned out to be 37.5 nM.

As to `O=C(NO)C1(S(=O)(=O)N2CCC(COCC(F)(F)C(F)(F)C(F)(F)C(F)F)CC2)CCOCC1` [Example 378], the Ki turned out to be 24.8 nM.
